Legend:
Coriolus versicolor = experiment: In vitro malt agar test, colony diameter; type: cell-based; conditions: assessed after 6 days
Experimental: (§1) A 50% SC of fluquinconazole (fq) was incorporated into malt agar at various rates and the agar placed into Petri dishes. Into the centre of each plate was implanted a 4 mm plug of the mycelium of a wood rotting fungus. The plates were kept at 20° C. in a darkened room for 6 days when the control of the fungus by the fluquinconazole was assessed. The experiment was also carried out with a fluquinconazole formulation containing di(2-ethylhexyl)octyl phosphonate (ph) with and without prochloraz (pz).

Poria placenta = experiment: In vitro malt agar test, colony diameter; type: cell-based; conditions: assessed after 6 days
Experimental: as §1

Coniophora puteana = experiment: In vitro malt agar test, colony diameter; type: cell-based; conditions: assessed after 6 days
Experimental: as §1

sapstain fungi = experiment: In vivo test of activity against sapstain fungi (dipped pine bundles); conditions: 50% suspension concentrate diluted to 0.25%, 60 s dip, after 4 weeks; compared with wood dipped only in water
Source text: Bundles consisting of 7 pieces of freshly cut pine (approximate sizes of 20 cm×30 cm) were dipped in a 50% suspension concentrate of fluquinconazole, diluted to 0.25%, for 60 seconds, ensuring each piece of wood was separated from its contacting pieces. The wood was removed from the liquid and allowed to drain for 10 seconds and then placed in an unsealed polythene bag at room temperature. The bag was used in order to maintain a high relative humidity, which promotes growth of sapstain. The wood was removed for examination after 4 weeks and divided into two in order to expose the centre of the bundles. These were assessed for sapstain infection.

Gloephyllum trabeum = experiment: In vitro malt agar test, colony diameter; type: cell-based; conditions: assessed after 11 days
Experimental: as §1, with “The plates were kept at 20° C. in a darkened room for 6 days when the control of the fungus by the fluquinconazole was assessed.” left out

[1] = test system: wood rotting fungi (mainly basidiomycetes); experiment: In vivo test of activity against wood destroying fungi (dipped pine pieces); conditions: 100 ppm fluquinconazole, formulation containing di(2-ethylhexyl)octyl phosphonate, 5 weeks in sealed bag, compared with standards without pesticide
Experimental: Pieces of pine were dipped into a fluquinconazole formulation containing di(2-ethylhexyl)octyl phosphonate at different rates and then removed and put, whilst soaking wet, into a polythene bag which was sealed and left in a greenhouse for 5 weeks. The degree of control of wood rotting fungi (mainly basidiomycetes) was then assessed.

O=c1c2cc(F)ccc2nc(-n2cncn2)n1-c1ccc(Cl)cc1Cl [fluquinconazole, 3-(2,4-dichlorophenyl)-6-fluoro-2-(1H-1,2,4-triazol-1-yl)-4(3H)-quinazolinone]
% Control based on colony diameter (Coriolus versicolor; 1 ppm): 100.0%
% Control based on colony diameter (Coriolus versicolor; 5 ppm): 100.0%
% Control based on colony diameter (Coriolus versicolor; 10 ppm): 100.0%
% Control based on colony diameter (Coriolus versicolor; 25 ppm): 100.0%
% Control based on colony diameter (Coriolus versicolor; 100 ppm): 100.0%
% Control based on colony diameter (Poria placenta; 1 ppm): 99.4%
% Control based on colony diameter (Poria placenta; 5 ppm): 100.0%
% Control based on colony diameter (Poria placenta; 10 ppm): 100.0%
% Control based on colony diameter (Poria placenta; 25 ppm): 100.0%
% Control based on colony diameter (Poria placenta; 100 ppm): 100.0%
% Control based on colony diameter (Coniophora puteana; 1 ppm): 50.4%
% Control based on colony diameter (Coniophora puteana; 5 ppm): 75.6%
% Control based on colony diameter (Coniophora puteana; 10 ppm): 84.7%
% Control based on colony diameter (Coniophora puteana; 25 ppm): 68.7%
% Control based on colony diameter (Coniophora puteana; 100 ppm): 77.9%
control of the sapstain (sapstain fungi): > 60%
% Control based on colony diameter (Gloephyllum trabeum; 1 ppm): 80.5%
% Control based on colony diameter (Gloephyllum trabeum; 5 ppm): 94.0%
% Control based on colony diameter (Gloephyllum trabeum; 10 ppm): 95.0%
% Control based on colony diameter (Gloephyllum trabeum; 25 ppm): 92.5%
% Control based on colony diameter (Gloephyllum trabeum; 100 ppm): 94.0%
control of wood rotting fungi [1]: 73.1%

Source: patent publication US6399623B1, “Wood treatment” (Agrevo UK Ltd., priority 1998, dated 2002)
